{"source": "patent US20200038513A1", "about": "“MODULATORS OF FAK PROTEOLYSIS AND ASSOCIATED METHODS OF USE” (ARVINAS OPERATIONS, INC., priority 2018, published 2020)", "key": {"[1]": {"experiment": "Pharmacokinetics of intraperitoneal or intravenous injection in CD1 mice", "assay_type": "in vivo", "conditions": "for Conc. (ng/mL) Mouse 2 / Conc. (ng/mL) Mouse 1 / Conc. (ng/mL) Mouse 3 / concentration at 0.25 h / concentration at 0.5 h / concentration at 1 h / concentration at 2 h / concentration at 4 h / concentration at 8 h / concentration at 24 h / concentration at 0.033 h / concentration at 0.083 h: CD1 mice plasma; for concentration at 0.25 h / concentration at 0.5 h / concentration at 1 h / concentration at 2 h / concentration at 4 h / concentration at 8 h / concentration at 24 h / AUC(0-t) / half-life / concentration at 0.033 h / concentration at 0.083 h: male, CD1, mouse, plasma", "summary_of_the_method": "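Male CD1 mice, 6-8 weeks old, 3 per group, dosed IV (5 s injection; 10% HP-b-CD, 40 mM sodium acetate, 40 mM NaCl, pH 4.5) or IP (5% EtOH, 5% Solutol HS15 in D5W). Serial dorsal metatarsal vein blood, terminal heart puncture; plasma analysed by LC/MS/MS after acetonitrile precipitation, calibration 1-2000 ng/mL.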"}, "PPB": {"experiment": "PPB", "assay_type": "in vitro ADME", "conditions": "plasma"}, "[2]": {"conditions": "ip, 10 mg/kg, IP 10 mg/kg, read-out: Conc. (ng/mL) Mouse 1"}, "[3]": {"conditions": "ip, 10 mg/kg, IP 10 mg/kg, read-out: Conc. (ng/mL) Mouse 2"}, "[4]": {"conditions": "ip, 10 mg/kg, IP 10 mg/kg, read-out: Conc. (ng/mL) Mouse 3"}, "[5]": {"conditions": "ip, 10 mg/kg, IP 10 mg/kg, read-out: Mean"}, "[6]": {"conditions": "iv, 1 mg/kg, IV 1.0 mg/kg, read-out: Conc. (ng/mL) Mouse 1"}, "[7]": {"conditions": "iv, 1 mg/kg, IV 1.0 mg/kg, read-out: Conc. (ng/mL) Mouse 2"}, "[8]": {"conditions": "iv, 1 mg/kg, IV 1.0 mg/kg, read-out: Conc. (ng/mL) Mouse 3"}, "[9]": {"conditions": "iv, 1 mg/kg, IV 1.0 mg/kg, read-out: Mean"}}, "note": "Read-outs that look alike come from different tables or passages of the source."}
{"smiles": "Cc1ncsc1-c1ccc(CNC(=O)[C@@H]2C[C@@H](O)CN2C(=O)[C@@H](NC(=O)COCCOc2ccc(Nc3ncc(C(F)(F)F)c(NCc4cccc(N(C)S(C)(=O)=O)c4)n3)cc2)C(C)(C)C)cc1", "note": "[Compound 100, (2S,4R)-1-((S)-3,3-dimethyl-2-(2-(2-(4-((4-((3-(N-methylmethylsulfonamido)benzyl)amino)-5-(trifluoromethyl)pyrimidin-2-yl)amino)phenoxy)ethoxy)acetamido)butanoyl)-4-hydroxy-N-(4-(4-methylthiazol-5-yl)benzyl)pyrrolidine-2-carboxamide]", "values": [{"measurement": "Conc. (ng/mL) Mouse 2", "setting": "[1]; IP 10 mg/kg, 24 h", "result": "BLOQ"}, {"measurement": "Conc. (ng/mL) Mouse 1", "setting": "[1]; IV 1.0 mg/kg, 8 h", "result": "BLOQ"}, {"measurement": "Conc. (ng/mL) Mouse 2", "setting": "[1]; IV 1.0 mg/kg, 8 h", "result": "BLOQ"}, {"measurement": "Conc. (ng/mL) Mouse 3", "setting": "[1]; IV 1.0 mg/kg, 8 h", "result": "BLOQ"}, {"measurement": "Conc. (ng/mL) Mouse 1", "setting": "[1]; IV 1.0 mg/kg, 24 h", "result": "BLOQ"}, {"measurement": "Conc. (ng/mL) Mouse 2", "setting": "[1]; IV 1.0 mg/kg, 24 h", "result": "BLOQ"}, {"measurement": "Conc. (ng/mL) Mouse 3", "setting": "[1]; IV 1.0 mg/kg, 24 h", "result": "BLOQ"}, {"measurement": "concentration at 0.25 h", "setting": "[1]; [2]", "result": 252, "unit": "ng/mL"}, {"measurement": "concentration at 0.25 h", "setting": "[1]; [3]", "result": 402, "unit": "ng/mL"}, {"measurement": "concentration at 0.25 h", "setting": "[1]; [4]", "result": 374, "unit": "ng/mL"}, {"measurement": "concentration at 0.25 h", "setting": "[1]; [5]", "result": 343, "unit": "ng/mL"}, {"measurement": "concentration at 0.5 h", "setting": "[1]; [2]", "result": 362, "unit": "ng/mL"}, {"measurement": "concentration at 0.5 h", "setting": "[1]; [3]", "result": 467, "unit": "ng/mL"}, {"measurement": "concentration at 0.5 h", "setting": "[1]; [4]", "result": 373, "unit": "ng/mL"}, {"measurement": "concentration at 0.5 h", "setting": "[1]; [5]", "result": 401, "unit": "ng/mL"}, {"measurement": "concentration at 1 h", "setting": "[1]; [2]", "result": 648, "unit": "ng/mL"}, {"measurement": "concentration at 1 h", "setting": "[1]; [3]", "result": 1550, "unit": "ng/mL"}, {"measurement": "concentration at 1 h", "setting": "[1]; [4]", "result": 2480, "unit": "ng/mL"}, {"measurement": "concentration at 1 h", "setting": "[1]; [5]", "result": 1560, "unit": "ng/mL"}, {"measurement": "concentration at 2 h", "setting": "[1]; [2]", "result": 764, "unit": "ng/mL"}, {"measurement": "concentration at 2 h", "setting": "[1]; [3]", "result": 1750, "unit": "ng/mL"}, {"measurement": "concentration at 2 h", "setting": "[1]; [4]", "result": 1610, "unit": "ng/mL"}, {"measurement": "concentration at 2 h", "setting": "[1]; [5]", "result": 1380, "unit": "ng/mL"}, {"measurement": "concentration at 4 h", "setting": "[1]; [2]", "result": 362, "unit": "ng/mL"}, {"measurement": "concentration at 4 h", "setting": "[1]; [3]", "result": 625, "unit": "ng/mL"}, {"measurement": "concentration at 4 h", "setting": "[1]; [4]", "result": 510, "unit": "ng/mL"}, {"measurement": "concentration at 4 h", "setting": "[1]; [5]", "result": 499, "unit": "ng/mL"}, {"measurement": "concentration at 8 h", "setting": "[1]; ip, 10 mg/kg, IP 10 mg/kg, 8 h, read-out: Conc. (ng/mL) Mouse 1", "result": 95.4, "unit": "ng/mL"}, {"measurement": "concentration at 8 h", "setting": "[1]; ip, 10 mg/kg, IP 10 mg/kg, 8 h, read-out: Conc. (ng/mL) Mouse 2", "result": 111, "unit": "ng/mL"}, {"measurement": "concentration at 8 h", "setting": "[1]; ip, 10 mg/kg, IP 10 mg/kg, 8 h, read-out: Conc. (ng/mL) Mouse 3", "result": 151, "unit": "ng/mL"}, {"measurement": "concentration at 8 h", "setting": "[1]; ip, 10 mg/kg, IP 10 mg/kg, 8 h, read-out: Mean", "result": 119, "unit": "ng/mL"}, {"measurement": "concentration at 24 h", "setting": "[1]; ip, 10 mg/kg, IP 10 mg/kg, 24 h, read-out: Conc. (ng/mL) Mouse 1", "result": 1.35, "unit": "ng/mL"}, {"measurement": "concentration at 24 h", "setting": "[1]; ip, 10 mg/kg, IP 10 mg/kg, 24 h, read-out: Conc. (ng/mL) Mouse 3", "result": 1.56, "unit": "ng/mL"}, {"measurement": "concentration at 24 h", "setting": "[1]; ip, 10 mg/kg, IP 10 mg/kg, 24 h, read-out: Mean", "result": 1.46, "unit": "ng/mL"}, {"measurement": "AUC(0-t)", "setting": "[1]; ip, 10 mg/kg, read-out: AUClast (h * ng/mL) IP", "result": 5870, "unit": "ng·h/mL"}, {"measurement": "half-life", "setting": "[1]; ip, 10 mg/kg, read-out: T ½ (h) IP (converted)", "result": 2.15, "unit": "h"}, {"measurement": "concentration at 0.033 h", "setting": "[1]; [6]", "result": 1320, "unit": "ng/mL"}, {"measurement": "concentration at 0.033 h", "setting": "[1]; [7]", "result": 1390, "unit": "ng/mL"}, {"measurement": "concentration at 0.033 h", "setting": "[1]; [8]", "result": 1150, "unit": "ng/mL"}, {"measurement": "concentration at 0.033 h", "setting": "[1]; [9]", "result": 1290, "unit": "ng/mL"}, {"measurement": "concentration at 0.083 h", "setting": "[1]; [6]", "result": 233, "unit": "ng/mL"}, {"measurement": "concentration at 0.083 h", "setting": "[1]; [7]", "result": 313, "unit": "ng/mL"}, {"measurement": "concentration at 0.083 h", "setting": "[1]; [8]", "result": 205, "unit": "ng/mL"}, {"measurement": "concentration at 0.083 h", "setting": "[1]; [9]", "result": 250, "unit": "ng/mL"}, {"measurement": "concentration at 0.25 h", "setting": "[1]; [6]", "result": 34.7, "unit": "ng/mL"}, {"measurement": "concentration at 0.25 h", "setting": "[1]; [7]", "result": 48.2, "unit": "ng/mL"}, {"measurement": "concentration at 0.25 h", "setting": "[1]; [8]", "result": 36.4, "unit": "ng/mL"}, {"measurement": "concentration at 0.25 h", "setting": "[1]; [9]", "result": 39.8, "unit": "ng/mL"}, {"measurement": "concentration at 0.5 h", "setting": "[1]; [6]", "result": 17.4, "unit": "ng/mL"}, {"measurement": "concentration at 0.5 h", "setting": "[1]; [7]", "result": 27.1, "unit": "ng/mL"}, {"measurement": "concentration at 0.5 h", "setting": "[1]; [8]", "result": 18, "unit": "ng/mL"}, {"measurement": "concentration at 0.5 h", "setting": "[1]; [9]", "result": 20.8, "unit": "ng/mL"}, {"measurement": "concentration at 1 h", "setting": "[1]; [6]", "result": 6.22, "unit": "ng/mL"}, {"measurement": "concentration at 1 h", "setting": "[1]; [7]", "result": 9.77, "unit": "ng/mL"}, {"measurement": "concentration at 1 h", "setting": "[1]; [8]", "result": 8.79, "unit": "ng/mL"}, {"measurement": "concentration at 1 h", "setting": "[1]; [9]", "result": 8.26, "unit": "ng/mL"}, {"measurement": "concentration at 2 h", "setting": "[1]; [6]", "result": 3.27, "unit": "ng/mL"}, {"measurement": "concentration at 2 h", "setting": "[1]; [7]", "result": 5.86, "unit": "ng/mL"}, {"measurement": "concentration at 2 h", "setting": "[1]; [8]", "result": 3.98, "unit": "ng/mL"}, {"measurement": "concentration at 2 h", "setting": "[1]; [9]", "result": 4.37, "unit": "ng/mL"}, {"measurement": "concentration at 4 h", "setting": "[1]; [6]", "result": 1.84, "unit": "ng/mL"}, {"measurement": "concentration at 4 h", "setting": "[1]; [7]", "result": 4.11, "unit": "ng/mL"}, {"measurement": "concentration at 4 h", "setting": "[1]; [8]", "result": 2.13, "unit": "ng/mL"}, {"measurement": "concentration at 4 h", "setting": "[1]; [9]", "result": 2.69, "unit": "ng/mL"}, {"measurement": "AUC(0-t)", "setting": "[1]; iv, 1 mg/kg, read-out: AUClast (h * ng/mL) IV", "result": 175, "unit": "ng·h/mL"}, {"measurement": "half-life", "setting": "[1]; iv, 1 mg/kg, read-out: T ½ (h) IV (converted)", "result": 1.95, "unit": "h"}, {"measurement": "fraction unbound", "setting": "PPB", "result": 0.008}]}
